The source made the active and inactive calls. The calls are words filed in the database; no cut-off is given here.
Assays:
Assay type in all cases: functional
Rhizopus [1] = test: Antimicrobial activity against Rhizopus at 500 ppm after 72 to 96 hr by disk diffusion method; conditions: read-out: IZ
Aspergillus flavus [2] = test: Antimicrobial activity against Aspergillus flavus at 100 ppm after 72 to 96 hr by disk diffusion method; conditions: read-out: IZ
Escherichia coli [3] = test: Antimicrobial activity against Escherichia coli at 100 ppm after 24 hr by disk diffusion method
Aspergillus flavus [4] = test: Antimicrobial activity against Aspergillus flavus at 500 ppm after 72 to 96 hr by disk diffusion method; conditions: read-out: IZ
Vibrio cholerae [5] = test: Antimicrobial activity against Vibrio cholerae at 100 ppm after 24 hr by disk diffusion method; conditions: for zone of inhibition at 100 ppm: read-out: IZ
Salmonella typhi [6] = test: Antimicrobial activity against Salmonella enterica subsp. enterica serovar Typhi at 200 ppm after 24 hr by disk diffusion method; conditions: read-out: IZ
Streptococcus [7] = test: Antimicrobial activity against beta-hemolytic Streptococcus at 200 ppm after 24 hr by disk diffusion method; conditions: read-out: IZ
Escherichia coli [8] = test: Antimicrobial activity against Escherichia coli at 200 ppm after 24 hr by disk diffusion method; conditions: read-out: IZ
Staphylococcus aureus [9] = test: Antimicrobial activity against Staphylococcus aureus at 500 ppm after 24 hr by disk diffusion method; conditions: read-out: IZ
Aspergillus flavus [10] = test: Antimicrobial activity against Aspergillus flavus at 200 ppm after 72 to 96 hr by disk diffusion method; conditions: read-out: IZ
Shigella flexneri [11] = test: Antimicrobial activity against Shigella flexneri at 200 ppm after 24 hr by disk diffusion method; conditions: read-out: IZ
Shigella flexneri [12] = test: Antimicrobial activity against Shigella flexneri at 500 ppm after 24 hr by disk diffusion method; conditions: read-out: IZ
Staphylococcus aureus [13] = test: Antimicrobial activity against Staphylococcus aureus at 200 ppm after 24 hr by disk diffusion method; conditions: read-out: IZ
Nannizzia gypsea [14] = test: Antimicrobial activity against Microsporum gypseum at 200 ppm after 72 to 96 hr by disk diffusion method; conditions: for zone of inhibition at 200 ppm: read-out: IZ
Vibrio cholerae [15] = test: Antimicrobial activity against Vibrio cholerae at 200 ppm after 24 hr by disk diffusion method; conditions: read-out: IZ
Klebsiella pneumoniae [16] = test: Antimicrobial activity against Klebsiella pneumoniae at 200 ppm after 24 hr by disk diffusion method; conditions: read-out: IZ
Streptococcus [17] = test: Antimicrobial activity against beta-hemolytic Streptococcus at 100 ppm after 24 hr by disk diffusion method; conditions: for zone of inhibition at 100 ppm: read-out: IZ
Pseudomonas [18] = test: Antimicrobial activity against Pseudomonas at 100 ppm after 24 hr by disk diffusion method; conditions: for zone of inhibition at 100 ppm: read-out: IZ
Mucor [19] = test: Antimicrobial activity against Mucor at 200 ppm after 72 to 96 hr by disk diffusion method; conditions: read-out: IZ
Nannizzia gypsea [20] = test: Antimicrobial activity against Microsporum gypseum at 500 ppm after 72 to 96 hr by disk diffusion method; conditions: read-out: IZ
Rhizopus [21] = test: Antimicrobial activity against Rhizopus at 100 ppm after 72 to 96 hr by disk diffusion method
Pseudomonas [22] = test: Antimicrobial activity against Pseudomonas at 200 ppm after 24 hr by disk diffusion method; conditions: read-out: IZ
Mucor [23] = test: Antimicrobial activity against Mucor at 100 ppm after 72 to 96 hr by disk diffusion method
Escherichia coli [24] = test: Antimicrobial activity against Escherichia coli at 500 ppm after 24 hr by disk diffusion method; conditions: read-out: IZ
Pseudomonas [25] = test: Antimicrobial activity against Pseudomonas at 500 ppm after 24 hr by disk diffusion method; conditions: read-out: IZ
Nannizzia gypsea [26] = test: Antimicrobial activity against Microsporum gypseum at 100 ppm after 72 to 96 hr by disk diffusion method; conditions: for zone of inhibition at 100 ppm: read-out: IZ
Salmonella typhi [27] = test: Antimicrobial activity against Salmonella enterica subsp. enterica serovar Typhi at 500 ppm after 24 hr by disk diffusion method; conditions: read-out: IZ
Streptococcus [28] = test: Antimicrobial activity against beta-hemolytic Streptococcus at 500 ppm after 24 hr by disk diffusion method; conditions: read-out: IZ
Klebsiella pneumoniae [29] = test: Antimicrobial activity against Klebsiella pneumoniae at 500 ppm after 24 hr by disk diffusion method; conditions: read-out: IZ
Vibrio cholerae [30] = test: Antimicrobial activity against Vibrio cholerae at 500 ppm after 24 hr by disk diffusion method; conditions: read-out: IZ
Salmonella typhi [31] = test: Antimicrobial activity against Salmonella enterica subsp. enterica serovar Typhi at 100 ppm after 24 hr by disk diffusion method; conditions: for zone of inhibition at 100 ppm: read-out: IZ
Mucor [32] = test: Antimicrobial activity against Mucor at 500 ppm after 72 to 96 hr by disk diffusion method; conditions: read-out: IZ
Rhizopus [33] = test: Antimicrobial activity against Rhizopus at 200 ppm after 72 to 96 hr by disk diffusion method; conditions: for zone of inhibition at 200 ppm: read-out: IZ
Staphylococcus aureus [34] = test: Antimicrobial activity against Staphylococcus aureus at 100 ppm after 24 hr by disk diffusion method; conditions: for zone of inhibition at 100 ppm: read-out: IZ
Shigella flexneri [35] = test: Antimicrobial activity against Shigella flexneri at 100 ppm after 24 hr by disk diffusion method
Klebsiella pneumoniae [36] = test: Antimicrobial activity against Klebsiella pneumoniae at 100 ppm after 24 hr by disk diffusion method; conditions: for zone of inhibition at 100 ppm: read-out: IZ

SMILES | zone of inhibition at 500 ppm (Rhizopus [1]) [mm] | zone of inhibition at 100 ppm (Aspergillus flavus [2]) [mm] | inhibition zone (IZ) (Escherichia coli [3]) | zone of inhibition at 500 ppm (Aspergillus flavus [4]) [mm] | zone of inhibition at 200 ppm (Salmonella typhi [6]) [mm] | zone of inhibition at 200 ppm (Streptococcus [7]) [mm] | zone of inhibition at 200 ppm (Escherichia coli [8]) [mm] | zone of inhibition at 500 ppm (Staphylococcus aureus [9]) [mm] | zone of inhibition at 200 ppm (Aspergillus flavus [10]) [mm] | zone of inhibition at 200 ppm (Shigella flexneri [11]) [mm] | zone of inhibition at 500 ppm (Shigella flexneri [12]) [mm] | zone of inhibition at 200 ppm (Staphylococcus aureus [13]) [mm] | zone of inhibition at 200 ppm (Vibrio cholerae [15]) [mm] | zone of inhibition at 200 ppm (Klebsiella pneumoniae [16]) [mm] | zone of inhibition at 200 ppm (Mucor [19]) [mm] | zone of inhibition at 500 ppm (Nannizzia gypsea [20]) [mm] | zone of inhibition at 200 ppm (Pseudomonas [22]) [mm] | zone of inhibition at 500 ppm (Escherichia coli [24]) [mm] | zone of inhibition at 500 ppm (Pseudomonas [25]) [mm] | zone of inhibition at 500 ppm (Salmonella typhi [27]) [mm] | also measured
Cc1ccc(/C=C/C(=O)c2ccc(N3CCOCC3)cc2)cc1 | 17 | 12 | inactive | 17 | 17 | 17 | 12 | 30 | 12 | 17 | 30 | 17 | 12 | 17 | 12 | 17 | 22 | 17 | 30 | 17 | zone of inhibition at 100 ppm (Vibrio cholerae [5]): 12 mm; inhibition zone (IZ) (Nannizzia gypsea [14]): inactive; zone of inhibition at 100 ppm (Streptococcus [17]): 12 mm; zone of inhibition at 100 ppm (Pseudomonas [18]): 17 mm; zone of inhibition at 100 ppm (Rhizopus [21]; read-out: IZ): 12 mm; zone of inhibition at 100 ppm (Mucor [23]; read-out: IZ): 12 mm; zone of inhibition at 100 ppm (Nannizzia gypsea [26]): 12 mm; zone of inhibition at 500 ppm (Streptococcus [28]): 30 mm; zone of inhibition at 500 ppm (Klebsiella pneumoniae [29]): 30 mm; zone of inhibition at 500 ppm (Vibrio cholerae [30]): 17 mm; zone of inhibition at 100 ppm (Salmonella typhi [31]): 12 mm; zone of inhibition at 500 ppm (Mucor [32]): 17 mm; inhibition zone (IZ) (Rhizopus [33]): inactive; inhibition zone (IZ) (Staphylococcus aureus [34]): inactive; zone of inhibition at 100 ppm (Shigella flexneri [35]; read-out: IZ): 12 mm; zone of inhibition at 100 ppm (Klebsiella pneumoniae [36]): 12 mm
O=C(/C=C/c1ccc(F)cc1)c1ccc(N2CCOCC2)cc1 | 22 | 12 | inactive | 30 | 17 | 17 | 17 | 22 | 17 | 17 | 22 | 17 | 17 | 12 | 17 | 30 | 22 | 17 | 30 | 17 | zone of inhibition at 100 ppm (Vibrio cholerae [5]): 12 mm; zone of inhibition at 200 ppm (Nannizzia gypsea [14]): 17 mm; inhibition zone (IZ) (Streptococcus [17]): inactive; inhibition zone (IZ) (Pseudomonas [18]): inactive; inhibition zone (IZ) (Rhizopus [21]): inactive; inhibition zone (IZ) (Mucor [23]): inactive; inhibition zone (IZ) (Nannizzia gypsea [26]): inactive; zone of inhibition at 500 ppm (Streptococcus [28]): 22 mm; zone of inhibition at 500 ppm (Klebsiella pneumoniae [29]): 22 mm; zone of inhibition at 500 ppm (Vibrio cholerae [30]): 17 mm; zone of inhibition at 100 ppm (Salmonella typhi [31]): 12 mm; zone of inhibition at 500 ppm (Mucor [32]): 22 mm; zone of inhibition at 200 ppm (Rhizopus [33]): 17 mm; inhibition zone (IZ) (Staphylococcus aureus [34]): inactive; inhibition zone (IZ) (Shigella flexneri [35]): inactive; inhibition zone (IZ) (Klebsiella pneumoniae [36]): inactive
COc1ccc(/C=C/C(=O)c2ccc(N3CCOCC3)cc2)cc1 | 17 | 12 | inactive | 17 | 12 | 22 | 12 | 30 | 12 | 17 | 22 | 22 | 12 | 17 | 12 | 17 | 22 | 17 | 30 | 17 | inhibition zone (IZ) (Vibrio cholerae [5]): inactive; zone of inhibition at 200 ppm (Nannizzia gypsea [14]): 12 mm; zone of inhibition at 100 ppm (Streptococcus [17]): 12 mm; zone of inhibition at 100 ppm (Pseudomonas [18]): 12 mm; inhibition zone (IZ) (Rhizopus [21]): inactive; inhibition zone (IZ) (Mucor [23]): inactive; zone of inhibition at 100 ppm (Nannizzia gypsea [26]): 12 mm; zone of inhibition at 500 ppm (Streptococcus [28]): 30 mm; zone of inhibition at 500 ppm (Klebsiella pneumoniae [29]): 30 mm; zone of inhibition at 500 ppm (Vibrio cholerae [30]): 17 mm; inhibition zone (IZ) (Salmonella typhi [31]): inactive; zone of inhibition at 500 ppm (Mucor [32]): 17 mm; zone of inhibition at 200 ppm (Rhizopus [33]): 12 mm; zone of inhibition at 100 ppm (Staphylococcus aureus [34]): 12 mm; inhibition zone (IZ) (Shigella flexneri [35]): inactive; inhibition zone (IZ) (Klebsiella pneumoniae [36]): inactive
O=C(/C=C/c1ccccc1)c1ccc(N2CCOCC2)cc1 | 17 | 12 | inactive | 17 | 12 | 17 | 17 | 22 | 17 | 17 | 22 | 17 | 17 | 12 | 12 | 17 | 22 | 17 | 30 | 17 | inhibition zone (IZ) (Vibrio cholerae [5]): inactive; zone of inhibition at 200 ppm (Nannizzia gypsea [14]): 12 mm; zone of inhibition at 100 ppm (Streptococcus [17]): 12 mm; zone of inhibition at 100 ppm (Pseudomonas [18]): 17 mm; inhibition zone (IZ) (Rhizopus [21]): inactive; inhibition zone (IZ) (Mucor [23]): inactive; inhibition zone (IZ) (Nannizzia gypsea [26]): inactive; zone of inhibition at 500 ppm (Streptococcus [28]): 22 mm; zone of inhibition at 500 ppm (Klebsiella pneumoniae [29]): 22 mm; zone of inhibition at 500 ppm (Vibrio cholerae [30]): 17 mm; inhibition zone (IZ) (Salmonella typhi [31]): inactive; zone of inhibition at 500 ppm (Mucor [32]): 17 mm; zone of inhibition at 200 ppm (Rhizopus [33]): 12 mm; zone of inhibition at 100 ppm (Staphylococcus aureus [34]): 12 mm; inhibition zone (IZ) (Shigella flexneri [35]): inactive; zone of inhibition at 100 ppm (Klebsiella pneumoniae [36]): 12 mm
